Laboratory results from patent US20240360146A1, “BRUTON'S TYROSINE KINASE AND MUTANT DEGRADER, COMPOSITION AND APPLICATION THEREOF” (HANGZHOU HEALZEN THERAPEUTICS CO., LTD., priority 2021, published 2024).

How the values were obtained:
Format in all cases: cell-based
Mino cells = assay: Inhibitory activity on Mino cell proliferation (MTS); details: Homo sapiens, 168 h incubation
Protocol: (§1) The anti-tumor efficacy of the compounds was tested by measuring their inhibitory effects on OCI-LY10 and Mino cell proliferation. OCI-LY10 and Mino cells were cultured in RPMI-1640 medium containing 10% fetal calf serum. OCI-LY10 and Mino cells were digested, inoculated in a 96-well plate at a cell concentration of 10000 cells/well, and incubated overnight at 37° C., 5% CO2. Compounds of different concentrations (1000 nM, 4-fold dilution, 8 points) were added to the 96-well plate and incubated for 72 h (LY10) or 168 h (Mino) at 37° C. and 5% CO2, and then 20 uL of MTS was added to each well. After incubation for 2 h, 25 μl of 10% SDS was added to each well to terminate the reaction. The absorbance at 490 nm and 650 nm were measured with a microplate reader. IC50 was calculated using GraphPad Prism 5.0.

BTK = target: T1, BTK (Homo sapiens, UniProt Q06187); assay: BTK degradation activity test in Mino cells; details: 16 h incubation, Western blot or Elisa
T1 construct: endogenous in cells; host or cells: Mino cells
Method in brief: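 DC50 derived by curve fitting of BTK degradation rates versus untreated control across compound concentrations. Mino cells were exposed for 16 h; BTK levels in lysates, normalised via BCA protein, measured by Western blot or ELISA.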

OCI-LY10 cells = assay: Inhibitory activity on OCI-LY10 cell proliferation (MTS); details: Homo sapiens, 72 h
Protocol: as §1

T1 sequence (Q06187 whole entry): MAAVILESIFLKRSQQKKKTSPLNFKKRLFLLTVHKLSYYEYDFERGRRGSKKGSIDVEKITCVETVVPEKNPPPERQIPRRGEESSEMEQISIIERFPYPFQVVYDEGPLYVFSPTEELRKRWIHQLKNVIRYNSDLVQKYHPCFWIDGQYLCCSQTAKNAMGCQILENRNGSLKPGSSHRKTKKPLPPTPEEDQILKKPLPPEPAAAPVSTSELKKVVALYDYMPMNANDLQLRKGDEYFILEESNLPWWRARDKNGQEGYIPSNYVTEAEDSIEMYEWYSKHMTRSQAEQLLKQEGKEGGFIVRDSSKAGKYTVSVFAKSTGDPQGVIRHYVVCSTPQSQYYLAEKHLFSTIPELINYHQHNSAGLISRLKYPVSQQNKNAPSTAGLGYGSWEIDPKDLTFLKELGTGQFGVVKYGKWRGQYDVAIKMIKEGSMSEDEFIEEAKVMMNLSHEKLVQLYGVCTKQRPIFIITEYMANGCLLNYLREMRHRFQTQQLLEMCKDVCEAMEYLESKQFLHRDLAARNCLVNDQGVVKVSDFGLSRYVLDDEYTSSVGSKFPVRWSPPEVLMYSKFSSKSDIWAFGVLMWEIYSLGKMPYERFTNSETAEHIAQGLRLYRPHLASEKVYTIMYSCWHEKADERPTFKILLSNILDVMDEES

**Q.** `CN1CCN([C@@H]2CCCN(c3nnc(C(N)=O)c(Nc4ccc(N5CCN(CC6CCN(c7ccc8c(c7)CN(C7CCC(=O)NC7=O)C8=O)CC6)CC5)c(F)c4)n3)C2)C1=O` (stereo partly drawn) [Compound 167, 5-((4-(4-((1-(2-(2,6-dioxopiperidin-3-yl)-1-oxoisoindolin-5-yl)piperidin-4-yl)methyl)piperazin-1-yl)-3-fluorophenyl)amino)-3-((R)-3-(3-methyl-2-oxoimidazolidin-1-yl)piperidin-1-yl)-1,2,4-triazin-6-carboxamide] was tested. Which IC50 (Mino cells) did it give?
**A.** 2.42 nM

**Q.** And the DC50 (BTK)?
**A.** < 1 nM

**Q.** What about the IC50 (OCI-LY10 cells) of the same molecule?
**A.** 0.45 nM

**Q.** For `CN1CCN([C@@H]2CCCN(c3ncc(C(N)=O)c(Nc4ccc(C5CCN(CC6CCN(c7ccc8c(c7)C(=O)N(C7CCC(=O)NC7=O)C8=O)C6)CC5)cc4)n3)C2)C1=O` (stereo partly drawn) [Compound 116, 4-((4-(1-((1-(2-(2,6-dioxopiperidin-3-yl)-1,3-dioxoisoindolin-5-yl)pyrrolidin-3-yl)methyl)piperidin-4-yl)phenyl)amino)-2-((R)-3-(3-methyl-2-oxoimidazolin-1-yl)piperidin-1-yl)pyrimidin-5-carboxamide], which IC50 (Mino cells) is on record?
**A.** 1.34 nM

**Q.** And the DC50 (BTK)?
**A.** < 1 nM

**Q.** And the IC50 (OCI-LY10 cells)?
**A.** 0.11 nM

**Q.** How did the IC50 (Mino cells) turn out when `CN1CCN([C@@H]2CCCN(c3nnc(C(N)=O)c(Nc4ccc(C5CCN(CC6(F)CCN(c7ccc8c(c7)C(=O)N(C7CCC(=O)NC7=O)C8=O)C6)CC5)cc4)n3)C2)C1=O` (stereo partly drawn) [Compound 121, 5-((4-(1-((1-(2-(2,6-dioxopiperidin-3-yl)-1,3-dioxoisoindolin-5-yl)-3-fluoropyrrolidin-3-yl)methyl)piperidin-4-yl)phenyl)amino)-3-((R)-3-(3-methyl-2-oxoimidazolin-1-yl)piperidin-1-yl)-1,2,4-triazin-6-carboxamide] was run?
**A.** 3.75 nM

**Q.** And the DC50 (BTK)?
**A.** < 1 nM

**Q.** And the IC50 (OCI-LY10 cells)?
**A.** 0.74 nM

**Q.** For `CN1CCN([C@@H]2CCCN(c3ncc(C(N)=O)c(Nc4ccc(C5CCN(CC6CCN(c7ccc8c(c7)C(=O)N(C7CCC(=O)NC7=O)C8=O)CC6)CC5)cc4)n3)C2)C1=O` (stereo partly drawn) [Compound 117, 4-((4-(1-((1-(2-(2,6-dioxopiperidin-3-yl)-1,3-dioxoisoindolin-5-yl)piperidin-4-yl)methyl)piperidin-4-yl)phenyl)amino)-2-((R)-3-(3-methyl-2-oxoimidazolin-1-yl)piperidin-1-yl)pyrimidin-5-carboxamide], which IC50 (Mino cells) is on record?
**A.** 3.08 nM

**Q.** What about the DC50 (BTK) of the same molecule?
**A.** < 1 nM

**Q.** And the IC50 (OCI-LY10 cells)?
**A.** 0.33 nM

**Q.** What does the source list for `NC(=O)c1nnc(N2CCC[C@@H](N3CCN(CC(F)(F)F)C3=O)C2)nc1Nc1ccc(C2CCN(CC3CCN(c4ccc5c(c4)C(=O)N(C4CCC(=O)NC4=O)C5=O)CC3)CC2)cc1` (stereo partly drawn) [Compound 141, 5-((4-(1-((1-(2-(2,6-dioxopiperidin-3-yl)-1,3-dioxoisoindolin-5-yl)piperidin-4-yl)methyl)piperidin-4-yl)phenyl)amino)-3-((R)-3-(2-oxo-3-(2,2,2-trifluoroethyl)imidazolin-1-yl)piperidin-1-yl)-1,2,4-triazin-6-carboxamide]?
**A.** IC50 (Mino cells): 3.92 nM; DC50 (BTK): < 1 nM; IC50 (OCI-LY10 cells): 2.19 nM

**Q.** Which IC50 (Mino cells) does the source give for `CN1CCN(C2CC3CC2N(c2cnc(C(N)=O)c(Nc4ccc(C5CCN(CC6CCN(c7ccc8c(c7)C(=O)N(C7CCC(=O)NC7=O)C8=O)CC6)CC5)cc4)n2)C3)C1=O` (stereo not drawn) [Compound 118, 3-((4-(1-((1-(2-(2,6-dioxopiperidin-3-yl)-1,3-dioxoisoindolin-5-yl)piperidin-4-yl)methyl)piperidin-4-yl)phenyl)amino)-5-(6-(3-methyl-2-oxoimidazolin-1-yl)-2-azabicyclo[2.2.1]heptan-2-yl)pyrazin-2-carboxamide] here?
**A.** 10.7 nM

**Q.** And the DC50 (BTK)?
**A.** < 1 nM

**Q.** What about the IC50 (OCI-LY10 cells) of the same molecule?
**A.** 0.27 nM

**Q.** `CN1CCN([C@@H]2CCCN(c3nnc(C(N)=O)c(Nc4ccc(C5CCN(CC6CCN(c7ccc8c(c7)C(=O)N(C7CCC(=O)NC7=O)C8=O)CC6)CC5)c(F)c4)n3)C2)C1=O` (stereo partly drawn) [Compound 129, 5-((4-(1-((1-(2-(2,6-dioxopiperidin-3-yl)-1,3-dioxoisoindolin-5-yl)piperidin-4-yl)methyl)piperidin-4-yl)-3-fluorophenyl)amino)-3-((R)-3-(3-methyl-2-oxoimidazolin-1-yl)piperidin-1-yl)-1,2,4-triazin-6-carboxamide] was tested. Which IC50 (Mino cells) did it give?
**A.** 3.09 nM

**Q.** What about the DC50 (BTK) of the same molecule?
**A.** < 1 nM

**Q.** And the IC50 (OCI-LY10 cells)?
**A.** 0.14 nM

**Q.** Which IC50 (Mino cells) does the source give for `CN1CCN([C@@H]2CCCN(c3nnc(C(N)=O)c(Nc4ccc(C5CCN(CC6CCN(c7ccc8c(c7)C(=O)N(C7CCC(=O)NC7=O)C8=O)C6)CC5)cc4)n3)C2)C1=O` (stereo partly drawn) [Compound 124, 5-((4-(1-((1-(2-(2,6-dioxopiperidin-3-yl)-1,3-dioxoisoindolin-5-yl)pyrrolidin-3-yl)methyl)piperidin-4-yl)phenyl)amino)-3-((R)-3-(3-methyl-2-oxoimidazolin-1-yl)piperidin-1-yl)-1,2,4-triazin-6-carboxamide] here?
**A.** 4.95 nM

**Q.** And the DC50 (BTK)?
**A.** < 1 nM

**Q.** And the IC50 (OCI-LY10 cells)?
**A.** < 0.26 nM

**Q.** What does the source list for `CN1C(=O)N([C@@H]2CCCN(c3nnc(C(N)=O)c(Nc4ccc(C5CCN(CC6CCN(c7ccc8c(c7)C(=O)N(C7CCC(=O)NC7=O)C8=O)CC6)CC5)cc4)n3)C2)CC12CC2` (stereo partly drawn) [Compound 138, 5-((4-(1-((1-(2-(2,6-dioxopiperidin-3-yl)-1,3-dioxoisoindolin-5-yl)piperidin-4-yl)methyl)piperidin-4-yl)phenyl)amino)-3-((R)-3-(4-methyl-5-oxo-4,6-diazaspiro[2.4]heptan-6-yl)piperidin-1-yl)-1,2,4-triazin-6-carboxamide]?
**A.** IC50 (Mino cells): 3.11 nM; DC50 (BTK): < 1 nM; IC50 (OCI-LY10 cells): 0.08 nM

**Q.** For `CN1CCN([C@@H]2CCCN(c3nnc(C(N)=O)c(Nc4ccc(N5CCN(CC6CCN(c7cc8c(cc7F)C(=O)N(C7CCC(=O)NC7=O)C8=O)CC6)CC5)c(F)c4)n3)C2)C1=O` (stereo partly drawn) [Compound 170, 5-((4-(4-((1-(2-(2,6-dioxopiperidin-3-yl)-6-fluoro-1,3-dioxoisoindolin-5-yl)piperidin-4-yl)methyl)piperazin-1-yl)-3-fluorophenyl)amino)-3-((R)-3-(3-methyl-2-oxoimidazolidin-1-yl)piperidin-1-yl)-1,2,4-triazin-6-carboxamide], which IC50 (Mino cells) is on record?
**A.** 4.64 nM

**Q.** And the DC50 (BTK)?
**A.** < 1 nM

**Q.** And the IC50 (OCI-LY10 cells)?
**A.** 1.25 nM

**Q.** What does the source list for `CN1CCN([C@@H]2CCCN(c3nnc(C(N)=O)c(Nc4ccc(N5CCN(CC6CCN(c7ccc(N8CCC(=O)NC8=O)cn7)CC6)CC5)c(F)c4)n3)C2)C1=O` [Compound 196, (R)-5-((4-(4-((1-(5-(2,4-dioxotetrahydropyrimidin-1(2H)-yl)pyridin-2-yl)piperidin-4-yl)methyl)piperazin-1-yl)-3-fluorophenyl)amino)-3-(3-(3-methyl-2-oxoimidazolidin-1-yl)piperidin-1-yl)-1,2,4-triazin-6-carboxamide]?
**A.** IC50 (Mino cells): 3.77 nM; DC50 (BTK): < 1 nM; IC50 (OCI-LY10 cells): 0.52 nM

**Q.** For `CN1CCN([C@@H]2CCCN(c3ncc(C(N)=O)c(Nc4ccc(N5CCN(CC6CCN(c7ccc8c(c7)C(=O)N(C7CCC(=O)NC7=O)C8=O)C6)CC5)cc4)n3)C2)C1=O` (stereo partly drawn) [Compound 115, 4-((4-(4-((1-(2-(2,6-dioxopiperidin-3-yl)-1,3-dioxoisoindolin-5-yl)pyrrolidin-3-yl)methyl)piperazin-1-yl)phenyl)amino)-2-((R)-3-(3-methyl-2-oxoimidazolin-1-yl)piperidin-1-yl)pyrimidin-5-carboxamide], which IC50 (Mino cells) is on record?
**A.** 5.97 nM

**Q.** And the DC50 (BTK)?
**A.** < 1 nM

**Q.** And the IC50 (OCI-LY10 cells)?
**A.** 0.59 nM
